Laboratory results from patent publication US9708314B2, “Heterocyclic amide compound” (NISSAN CHEMICAL INDUSTRIES, LTD., priority 2013, dated 2017).

Tests used:
Type in all cases: in vivo
[1] = tested on: Echinochloa oryzacola Vasing.; experiment: Test Example 1: herbicidal activity, application before weed generation in submerged conditions; settings: Seventeenth Table
Summary of the method: (§1)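 Alluvial soil in Wagner pots flooded to 4 cm water depth; weed seeds sown and 2.5 leaf stage rice seedlings transplanted. Emulsion diluted in water applied to water surface on sowing day at stated g/ha. Greenhouse 25° C. to 30° C.; effects scored 0–5 by herbicidal ratio after three weeks.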

Monochoria vaginalis = experiment: as above; settings: Seventeenth Table
Summary of the method: as §1

Scirpus juncoides = experiment: as above; settings: Seventeenth Table
Summary of the method: as §1

Cyperus difformis = experiment: Test Example 3: herbicidal effect by application to foliage (Wagner pot, water depth 0.1-0.5 cm); settings: Nineteenth Table, application to foliage
Summary of the method: (§2)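 Greenhouse pot test, 25–30 °C, alluvial soil. Sown seedlings grown 14 days then sprayed on leaves and stems with emulsion diluted to target g/ha. Rating at 3 weeks, 0–5 scale (0 ≤5%, 5 ≥90%).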

[2] = tested on: Echinochloa crus-galli var. crus-galli; experiment: as above; settings: Nineteenth Table, application to foliage
Summary of the method: as §2

Leptochloa chinensis = experiment: as above; settings: Nineteenth Table, application to foliage
Summary of the method: as §2

[3] = tested on: directly sowed Oryza sativa; experiment: Test Example 3: effect on crop by application to foliage (Wagner pot, water depth 0.1-0.5 cm); settings: Nineteenth Table, application to foliage
Summary of the method: as §2

Digitaria ciliaris = experiment: Test Example 4: herbicidal effect by application to foliage (diluvial soil, plastic box); settings: for F: Application herbicide amount 320 g/ha; for F (Digitaria ciliaris) herbicidal effect grade: foliage application
Summary of the method: (§3)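 Scores run from 0 (herbicidal ratio ≤5%) to 5 (≥90%, almost fully withered) and were assessed three weeks after foliar spraying. Seedlings had been raised for 14 days at 25-30° C in sterilized diluvial soil before treatment, with the emulsion diluted in water to the stated g/ha dose.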

Galium spurium = experiment: as above; settings: for Q: Application herbicide amount 320 g/ha; for Q (Galium spurium) herbicidal effect grade: foliage application
Summary of the method: as §3

[4] = Application herbicide amount 320 g/ha
[5] = application herbicide amount 320 g/ha
[6] = Application herbicide amount 288 g/ha
[7] = application herbicide amount 288 g/ha
[8] = Application herbicide amount 192 g/ha
[9] = application herbicide amount 192 g/ha
[10] = Application herbicide amount 141 g/ha
[11] = application herbicide amount 141 g/ha
[12] = application to foliage, 141 g/ha

SMILES	A: Echinochloa oryzicola Vasing. (herbicidal effect grade) [1, 4]	C: Monochoria vaginalis (herbicidal effect grade) (Monochoria vaginalis; [4])	B: Scirpus juncoides (herbicidal effect grade) (Scirpus juncoides; [4])	E (herbicidal effect grade) (Cyperus difformis; [5])	H (herbicidal effect grade) [2, 5]	D (herbicidal effect grade) (Leptochloa chinensis; [5])	b (effect on crop grade) [3, 5]	F (Digitaria ciliaris)	Q (Galium spurium)	other results
Cc1nnc(NC(=O)c2ccc(C(F)(F)F)n3c(SC(C)(C)C)nnc23)o1 [1-095]	5 (Herbicidal ratio of 90% or more (almost completely withered))	5 (Herbicidal ratio of 90% or more (almost completely withered))	5 (Herbicidal ratio of 90% or more (almost completely withered))	4 (Herbicidal ratio of 70% or more and less than 90%)	4 (Herbicidal ratio of 70% or more and less than 90%)	4 (Herbicidal ratio of 70% or more and less than 90%)	1 (Herbicidal ratio of 5% or more and less than 20%)	5 (Herbicidal ratio of 90% or more (almost completely withered))	3 (Herbicidal ratio of 40% or more and less than 70%)	–
Cc1nnc(NC(=O)c2ccc(C(F)(F)F)n3c(N4CCOCC4)nnc23)o1 [1-096]	5 (Herbicidal ratio of 90% or more (almost completely withered))	4 (Herbicidal ratio of 70% or more and less than 90%)	4 (Herbicidal ratio of 70% or more and less than 90%)	4 (Herbicidal ratio of 70% or more and less than 90%)	5 (Herbicidal ratio of 90% or more (almost completely withered))	5 (Herbicidal ratio of 90% or more (almost completely withered))	4 (Herbicidal ratio of 70% or more and less than 90%)	5 (Herbicidal ratio of 90% or more (almost completely withered))	4 (Herbicidal ratio of 70% or more and less than 90%)	–
CC(C)c1nnc2c(C(=O)Nc3nnc(C(F)(F)F)o3)ccc(C(F)(F)F)n12 [1-100]	4 (Herbicidal ratio of 70% or more and less than 90%)	3 (Herbicidal ratio of 40% or more and less than 70%)	3 (Herbicidal ratio of 40% or more and less than 70%)	4 (Herbicidal ratio of 70% or more and less than 90%)	5 (Herbicidal ratio of 90% or more (almost completely withered))	5 (Herbicidal ratio of 90% or more (almost completely withered))	0 (Herbicidal ratio of 5% or less (almost no effect))	3 (Herbicidal ratio of 40% or more and less than 70%)	0 (Herbicidal ratio of 5% or less (almost no effect))	–
COc1cccc(Nc2nnc3c(C(=O)Nc4nnc(C)o4)ccc(C(F)(F)F)n23)n1 [1-102]	3 (Herbicidal ratio of 40% or more and less than 70%)	2 (Herbicidal ratio of 20% or more and less than 40%)	2 (Herbicidal ratio of 20% or more and less than 40%)	4 (Herbicidal ratio of 70% or more and less than 90%)	4 (Herbicidal ratio of 70% or more and less than 90%)	5 (Herbicidal ratio of 90% or more (almost completely withered))	2 (Herbicidal ratio of 20% or more and less than 40%)	3 (Herbicidal ratio of 40% or more and less than 70%)	2 (Herbicidal ratio of 20% or more and less than 40%)	–
C=CCSc1nnc2c(C(=O)Nc3nnco3)ccc(C(F)(F)F)n12 [1-128]	–	–	–	–	–	–	–	–	–	A: Echinochloa oryzicola Vasing. (herbicidal effect grade) [1, 6]: 5 (Herbicidal ratio of 90% or more (almost completely withered)); C: Monochoria vaginalis (herbicidal effect grade) (Monochoria vaginalis; [6]): 2 (Herbicidal ratio of 20% or more and less than 40%); B: Scirpus juncoides (herbicidal effect grade) (Scirpus juncoides; [6]): 4 (Herbicidal ratio of 70% or more and less than 90%); E (herbicidal effect grade) (Cyperus difformis; [7]): 3 (Herbicidal ratio of 40% or more and less than 70%); H (herbicidal effect grade) [2, 7]: 4 (Herbicidal ratio of 70% or more and less than 90%); D (herbicidal effect grade) (Leptochloa chinensis; [7]): 3 (Herbicidal ratio of 40% or more and less than 70%); b (effect on crop grade) [3, 7]: 0 (Herbicidal ratio of 5% or less (almost no effect)); F (Digitaria ciliaris) herbicidal effect grade (Digitaria ciliaris; [6]): 5 (Herbicidal ratio of 90% or more (almost completely withered)); Q (Galium spurium) herbicidal effect grade (Galium spurium; [6]): 1 (Herbicidal ratio of 5% or more and less than 20%)
Cc1cc(C(=O)Nc2nnnn2C)c2nnc(C(C)C)n2c1C(F)(F)F [2-050]	–	–	–	–	–	–	–	–	–	A: Echinochloa oryzicola Vasing. (herbicidal effect grade) [1, 8]: 4 (Herbicidal ratio of 70% or more and less than 90%); C: Monochoria vaginalis (herbicidal effect grade) (Monochoria vaginalis; [8]): 3 (Herbicidal ratio of 40% or more and less than 70%); B: Scirpus juncoides (herbicidal effect grade) (Scirpus juncoides; [8]): 2 (Herbicidal ratio of 20% or more and less than 40%); E (herbicidal effect grade) (Cyperus difformis; [9]): 3 (Herbicidal ratio of 40% or more and less than 70%); H (herbicidal effect grade) [2, 9]: 4 (Herbicidal ratio of 70% or more and less than 90%); D (herbicidal effect grade) (Leptochloa chinensis; [9]): 3 (Herbicidal ratio of 40% or more and less than 70%); b (effect on crop grade) [3, 9]: 0 (Herbicidal ratio of 5% or less (almost no effect)); F (Digitaria ciliaris) herbicidal effect grade (Digitaria ciliaris; 192 g/ha): 3 (Herbicidal ratio of 40% or more and less than 70%); Q (Galium spurium) herbicidal effect grade (Galium spurium; 192 g/ha): 0 (Herbicidal ratio of 5% or less (almost no effect))
CCN(C)c1nnc2c(C(=O)Nc3nnnn3C)ccc(C(F)(F)F)n12 [2-088]	–	–	–	–	–	–	–	–	–	A: Echinochloa oryzicola Vasing. (herbicidal effect grade) [1, 10]: 5 (Herbicidal ratio of 90% or more (almost completely withered)); C: Monochoria vaginalis (herbicidal effect grade) (Monochoria vaginalis; [10]): 5 (Herbicidal ratio of 90% or more (almost completely withered)); B: Scirpus juncoides (herbicidal effect grade) (Scirpus juncoides; [10]): 5 (Herbicidal ratio of 90% or more (almost completely withered)); E (herbicidal effect grade) (Cyperus difformis; [11]): 4 (Herbicidal ratio of 70% or more and less than 90%); H (herbicidal effect grade) [2, 11]: 5 (Herbicidal ratio of 90% or more (almost completely withered)); D (herbicidal effect grade) (Leptochloa chinensis; [11]): 5 (Herbicidal ratio of 90% or more (almost completely withered)); b (effect on crop grade) [3, 11]: 3 (Herbicidal ratio of 40% or more and less than 70%); herbicidal effect, F (Digitaria ciliaris) (Digitaria ciliaris; [12]): 5 (Herbicidal ratio of 90% or more (almost completely withered)); herbicidal effect, Q (Galium spurium) (Galium spurium; [12]): 3 (Herbicidal ratio of 40% or more and less than 70%)
